Test results taken from patent publication US20230024302A1, “2,3,5-TRISUBSTITUTED PYRAZOLO[1,5-A]PYRIMIDINE COMPOUNDS” (Arcus Biosciences, Inc., priority 2019, published 2023).
Like-named read-outs stand apart in the source and are kept apart here.

Legend:
PI3Kγ (p120γ) = molecular target: T1, PI3Kγ (p120γ) (Homo sapiens, UniProt P48736); test: Inhibition of PI3K kinase activity (ADP Glo), PI3Kγ; details: read-out: biochemical potency (PI3Kγ IC50)
T1 construct: purchased Promega V1761
In short: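 IC50 values come from a 4-parameter nonlinear fit of ADP-Glo luminescence, which measures ADP produced as PIP2 is phosphorylated to PIP3. The p120γ enzyme (2× stock 8 nM) sat with compound 1 h at rt before substrate (2× stocks: 50 μM ATP, 0.1 mg/ml PIP2) was added. Phosphorylation then proceeded 60 min at rt.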

PI3Kγ = molecular target: T2, PI3Kγ (Homo sapiens, UniProt P48736); test: PI3Kγ cellular assay in THP-1 cells (AKT pS473 AlphaLISA); type: cell-based
T2 construct: host or cells: THP-1
T2 sequence (P48736 whole entry): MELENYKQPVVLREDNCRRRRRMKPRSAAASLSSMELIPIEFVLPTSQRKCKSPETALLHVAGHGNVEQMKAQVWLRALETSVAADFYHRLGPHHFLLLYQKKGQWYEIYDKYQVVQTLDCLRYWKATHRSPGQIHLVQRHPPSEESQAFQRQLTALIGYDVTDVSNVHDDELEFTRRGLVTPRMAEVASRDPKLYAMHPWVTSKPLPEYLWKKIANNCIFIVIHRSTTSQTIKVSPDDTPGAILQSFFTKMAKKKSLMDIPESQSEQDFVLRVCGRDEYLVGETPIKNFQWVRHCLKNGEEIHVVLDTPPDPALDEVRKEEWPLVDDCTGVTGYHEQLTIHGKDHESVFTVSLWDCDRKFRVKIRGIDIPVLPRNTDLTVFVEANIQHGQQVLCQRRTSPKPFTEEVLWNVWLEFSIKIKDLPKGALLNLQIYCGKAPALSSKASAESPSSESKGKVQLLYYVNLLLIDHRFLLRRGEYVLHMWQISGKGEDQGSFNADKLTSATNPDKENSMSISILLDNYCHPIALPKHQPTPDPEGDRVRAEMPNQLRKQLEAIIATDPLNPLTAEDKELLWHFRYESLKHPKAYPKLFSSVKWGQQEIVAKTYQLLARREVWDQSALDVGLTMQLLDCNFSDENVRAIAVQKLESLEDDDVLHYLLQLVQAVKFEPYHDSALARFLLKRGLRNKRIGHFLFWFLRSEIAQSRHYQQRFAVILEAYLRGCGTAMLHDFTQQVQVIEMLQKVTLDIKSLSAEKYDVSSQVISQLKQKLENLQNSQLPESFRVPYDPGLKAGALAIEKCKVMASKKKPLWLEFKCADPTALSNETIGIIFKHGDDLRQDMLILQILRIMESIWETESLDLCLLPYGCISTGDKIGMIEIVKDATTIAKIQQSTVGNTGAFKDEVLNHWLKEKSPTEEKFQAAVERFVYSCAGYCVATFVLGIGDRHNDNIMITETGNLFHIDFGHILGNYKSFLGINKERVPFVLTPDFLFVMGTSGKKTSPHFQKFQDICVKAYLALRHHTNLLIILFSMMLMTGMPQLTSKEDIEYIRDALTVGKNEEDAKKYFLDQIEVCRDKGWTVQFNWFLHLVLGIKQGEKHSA
In short: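 Endogenous AKT S473 phosphorylation, detected by AlphaLISA in lysates, serves as the PI3Kγ activity read-out in stimulated, serum-starved THP-1 cells (1.8×10^5/well).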

[1] = Table 7, rhMCP-1 stimulated AKT pS473, read-out: cellular potency (PI3Kγ IC50)

T1 sequence (P48736 whole entry): as above

SMILES	IC50 (PI3Kγ (p120γ); Table 6, p120γ)	IC50 (PI3Kγ; Table 6, rhMCP-1 stimulated AKT pS473, read-out: cellular potency (PI3Kγ IC50))	IC50 (PI3Kγ (p120γ); Table 7, p120γ)	IC50 (PI3Kγ; [1])
C[C@@H](C1CC1)N1Cc2cc(-c3ccn4nc(N)c(C(=O)N[C@@H](CO)C5CC5)c4n3)cc(C(C)(C)O)c2C1=O [Example 453]	< 100 nM	100 to 1000 nM		
C[C@@H](C1CC1)N1Cc2cc(-c3ccn4nc(N)c(C(=O)N[C@@H](CO)C5CC5)c4n3)cnc2C1=O [Example 454]			< 100 nM	> 1000 nM
C[C@@H](C1CC1)N1Cc2cc(-c3ccn4nc(N)c(C(=O)NC5CC5)c4n3)cnc2C1=O [Example 455]			< 100 nM	100 to 1000 nM
